Source: US20160158200A1, “Combinations of Hepatitis C Virus Inhibitors” (priority 2013, published 2016)

Tests used:
[1] = tested on: HCV genotype 1a L31V variant with leucine 31 changed to valine in the NS5A protein; test: microbe, parasite or virus in culture; format: cell-based; settings: genotype 1a L31V replicon; test compound titrated with compound N47 fixed at 200 nM versus singly
[2] = tested on: HCV genotype 1a Y93H variant with tyrosine 93 changed to histidine in the NS5A protein; test: microbe, parasite or virus in culture; format: cell-based; settings: genotype 1a Y93H replicon; test compound titrated with compound N47 fixed at 200 nM versus singly
Summary of the method: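 In an HCV genotype 1a replicon cell-based assay carrying the NS5A Y93H substitution, BMS-790052 was tested alone and in combination with a fixed amount of a second test compound. The combinations were examined for synergistic activity.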

Row | Structure (SMILES) | Fold-Synergistic G-1a (L31V) [1] [fold] | Fold-Synergistic G-1a (Y93H) [2] [fold]
1 | COC(=O)N[C@H](C(=O)N1CCn2c(-c3ccc(-c4ccc(-c5cnc6n5CCN(C(=O)[C@@H](NC(=O)OC)C(C)C)C6)cc4)cc3)cnc2C1)C(C)C | <10 | <10
2 | COC(=O)N[C@H](C(=O)N1C[C@@H](C)C[C@H]1c1ncc(-c2ccc(-c3ccc(-c4cnc([C@@H]5C[C@H](C)CN5C(=O)[C@@H](NC(=O)OC)C(C)C)[nH]4)cc3)cc2)[nH]1)C(C)C | >10 | >100
3 | COC(=O)N[C@H](C(=O)N1[C@H]2C[C@@]2(C)C[C@H]1c1ncc(-c2ccc(-c3ccc(-c4cnc([C@@H]5C[C@]6(C)C[C@@H]6N5C(=O)[C@@H](NC(=O)OC)C(C)C)[nH]4)cc3)cc2)[nH]1)C(C)C | >100 | >100
4 | COC(=O)N[C@H](C(=O)N1[C@@H](C)CC[C@H]1c1ncc(-c2ccc(-c3ccc4cc(-c5cnc([C@@H]6CC[C@H](C)N6C(=O)[C@@H](NC(=O)OC)C6CCOCC6)[nH]5)ccc4c3)cc2)[nH]1)C1CCOCC1 | <10 | >10
5 | COC(=O)N[C@H](C(=O)N1CCC[C@H]1c1nc(-c2ccc(-c3ccc4nc([C@@H]5CCCN5C(=O)[C@@H](NC(=O)OC)C(C)C)[nH]c4c3)cc2)c[nH]1)C(C)C | >10 | >100
6 | COC(=O)N[C@H](C(=O)N1CCC[C@H]1c1ncc(-c2ccc(-c3ccc4c(c3)CCCc3[nH]c([C@@H]5CCCN5C(=O)[C@@H](NC(=O)OC)C(C)C)nc3-4)cc2)[nH]1)C(C)C | >100 | >100
7 | COC(=O)N[C@H](C(=O)N1[C@@H]2C[C@@H]2C[C@H]1c1ncc(-c2ccc3cc(-c4ccc5[nH]c([C@@H]6C[C@H]7C[C@H]7N6C(=O)[C@@H](NC(=O)OC)C(C)C)nc5c4)ccc3c2)[nH]1)C(C)C | >100 | >100
8 | CN(C)[C@@H](C(=O)N1CCC[C@H]1c1ncc(-c2ccc(-c3ccc(-c4cnc([C@@H]5CCCN5C(=O)[C@@H](c5ccccc5)N(C)C)[nH]4)s3)s2)[nH]1)c1ccccc1 | <10 | <10
9 | CCC1(c2ccc(NC(=O)[C@@H]3C[C@H]4C[C@H]4N3C(=O)[C@@H](NC(=O)OC)C(C)C)cc2)CC2C3CC4CC(c5ccc(NC(=O)[C@@H]6C[C@H]7C[C@H]7N6C(=O)[C@@H](NC(=O)OC)C(C)C)cc5)(C3)CC2C4C1 (stereo partly drawn) | <10 | <10
10 | COC(=O)N[C@H](C(=O)N1CCC[C@H]1c1nc2ccc3cc(-c4ccc5c(ccc6nc([C@@H]7CCCN7C(=O)[C@@H](NC(=O)OC)C(C)C)[nH]c65)c4)ccc3c2[nH]1)C(C)C | >100 | >100
11 | COC(=O)N[C@H](C(=O)N1CCC[C@H]1C(=O)Nc1cc(-c2ncc(-c3ccc4nc([C@@H]5CCCN5C(=O)[C@@H](c5ccccc5)N(C)C)[nH]c4c3)o2)ccc1C)C(C)C | <10 | <10
12 | O=C(OCc1ccccc1)N1C[C@H](O)C[C@H]1c1nc2cc(C#Cc3ccc4[nH]c([C@@H]5C[C@@H](O)CN5C(=O)OCc5ccccc5)nc4c3)ccc2[nH]1 | <10 | <10
13 | O=C(c1nc(Cl)cc2ccccc12)N1CCC[C@H]1c1nc2ccc(C#Cc3ccc4nc([C@@H]5CCCN5C(=O)c5nc(Cl)cc6ccccc56)[nH]c4c3)cc2[nH]1 | <10 | <10
14 | O=C(Cc1ccccc1)N1CCC[C@H]1c1nc2cc(-c3ccc4nc([C@@H]5CCCN5C(=O)Cc5ccccc5)[nH]c4c3)ccc2[nH]1 | <10 | <10
15 | COc1cccc2c(C(=O)N3CCC[C@H]3c3nc4ccc(-c5cnc(-c6cccc(O)c6)o5)cc4[nH]3)nc(Cl)cc12 | <10 | <10
16 | CN(C)[C@@H](C(=O)N1CCC[C@H]1C(=O)Nc1ccc(C#Cc2ccc(NC(=O)[C@@H]3CCCN3C(=O)[C@@H](c3ccccc3)N(C)C)cc2)cc1)c1ccccc1 | <10 | <10
17 | COC(=O)N[C@H](C(=O)N1CCC[C@H]1c1ncc(-c2ccc(-c3ccc4cc(-c5cnc([C@@H]6CCCN6C(=O)[C@@H](NC(=O)OC)C6CCOCC6)[nH]5)ccc4c3)cc2)[nH]1)C1CCOCC1 | <10 | >10
18 | O=C(Cc1ccccc1)N1CCC[C@H]1c1nc2cc(CCc3ccc4nc([C@@H]5CCCN5C(=O)Cc5ccccc5)[nH]c4c3)ccc2[nH]1 | <10 | <10
19 | CC(C)[C@H](NC(=O)OCc1ccccc1)C(=O)Nc1ccc(-c2cnc(-c3ccc(NC(=O)[C@@H](NC(=O)OCc4ccccc4)C(C)C)cc3)o2)cc1 | <10 | <10
20 | COC(=O)N[C@H](C(=O)N1[C@@H]2CC[C@@H]2C[C@H]1c1nc(-c2ccc(-c3ccc(-c4cnc([C@@H]5C[C@H]6CC[C@H]6N5C(=O)[C@@H](NC(=O)OC)C(C)C)[nH]4)cc3)cc2)c[nH]1)C(C)C | >100 | >100
21 | COC(=O)N[C@H](C(=O)N1[C@@H]2C[C@@H]2C[C@H]1c1nc(Cl)c(-c2ccc(-c3ccc(-c4[nH]c([C@@H]5C[C@H]6C[C@H]6N5C(=O)[C@@H](NC(=O)OC)C(C)C)nc4Cl)cc3)cc2)[nH]1)C(C)C | >10 | <10
22 | COC(=O)N[C@H](C(=O)N1[C@@H]2C[C@@H]2C[C@H]1c1ncc(-c2ccc(-c3ccc4nc(-c5cnc([C@@H]6C[C@H]7C[C@H]7N6C(=O)[C@@H](NC(=O)OC)C(C)C)[nH]5)ccc4c3)cc2)[nH]1)C(C)C | <10 | >10
23 | O=C(Nc1ccc(/C=C/c2ccc(NC(=O)[C@@H]3CCCN3C(=O)Cc3cccnc3)nc2)cn1)[C@@H]1CCCN1C(=O)Cc1cccnc1 | <10 | <10
24 | COC(=O)N[C@H](C(=O)N1CC(F)(F)C[C@H]1c1nc(-c2ccc(-c3ccc(-c4c[nH]c([C@@H]5CC(F)(F)CN5C(=O)[C@@H](NC(=O)OC)C(C)C)n4)cc3)cc2)c[nH]1)C(C)C | >100 | >100
25 | COC(=O)N[C@H](C(=O)N1CCOC[C@H]1c1nc(-c2ccc(-c3ccc4cc(-c5c[nH]c([C@@H]6COCCN6C(=O)[C@@H](NC(=O)OC)C(C)C)n5)ccc4c3)cc2)c[nH]1)C(C)C | >10 | >10
26 | O=C(Nc1ccc(/C=C/c2ccc(NC(=O)[C@@H]3CCCCN3C(=O)OCc3ccccc3)cc2)cc1)[C@@H]1CCCCN1C(=O)OCc1ccccc1 | <10 | <10
27 | COC(=O)N[C@H](C(=O)N1CCC[C@H]1c1ncc(-c2ccc(-c3ncc(-c4cnc([C@@H]5CCCN5C(=O)[C@@H](NC(=O)OC)C(C)C)[nH]4)cn3)cc2)[nH]1)C(C)C | >100 | >100
